From patent EP1377579B1 (Aventis Pharmaceuticals Inc., priority 2000, dated 2002)
Where a name gives a salt, the structure may show the parent alone.

Assays:
[1] = target: cdk4/cyclin D1 (Homo sapiens, UniProt P11802); assay: Cyclin-dependent kinase assay, cdk4/cyclin D1; assay type: biochemical; settings: cyclin D1/cdk4; GST-pRb substrate, 10 µM ATP
[2] = tested on: MDA-MB-435; assay: In vitro proliferation assay (MTT), MDA-MB-435; assay type: cell-based, human; settings: Homo sapiens, MDA-MB-435, MTT assay; value (SD, n) where given; read-out: MB-435 Breast (IC50 µM)
Procedure, shortened: (§1)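 A570 readout of DMSO-solubilized MTT formazan after 3-day compound exposure; IC50 from raw data. Cells plated 1000–2500/well and recovered overnight before dosing.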

[3] = tested on: PC-3; assay: In vitro proliferation assay (MTT), PC-3; assay type: cell-based, human; settings: Homo sapiens, PC-3, MTT assay; value (SD, n) where given; read-out: PC-3 Prostate (IC50 µM)
Procedure, shortened: as §1

[4] = target: cdk1/cyclin B (Homo sapiens, UniProt P06493); assay: Cyclin-dependent kinase assay, cdk1/cyclin B; settings: CDK1 IC50, nM, Histone H1, 10 µM ATP
Chain of cdk1/cyclin B (P06493 whole entry): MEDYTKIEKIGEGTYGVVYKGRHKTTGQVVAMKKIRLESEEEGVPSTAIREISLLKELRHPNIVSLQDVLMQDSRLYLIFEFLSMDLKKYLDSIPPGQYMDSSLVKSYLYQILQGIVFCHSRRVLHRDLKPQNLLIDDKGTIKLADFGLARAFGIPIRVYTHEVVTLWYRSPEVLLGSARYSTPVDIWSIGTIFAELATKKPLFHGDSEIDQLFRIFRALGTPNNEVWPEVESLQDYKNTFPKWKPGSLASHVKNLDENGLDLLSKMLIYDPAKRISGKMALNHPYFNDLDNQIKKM
Chain of cdk1/cyclin B (P14635 whole entry partner): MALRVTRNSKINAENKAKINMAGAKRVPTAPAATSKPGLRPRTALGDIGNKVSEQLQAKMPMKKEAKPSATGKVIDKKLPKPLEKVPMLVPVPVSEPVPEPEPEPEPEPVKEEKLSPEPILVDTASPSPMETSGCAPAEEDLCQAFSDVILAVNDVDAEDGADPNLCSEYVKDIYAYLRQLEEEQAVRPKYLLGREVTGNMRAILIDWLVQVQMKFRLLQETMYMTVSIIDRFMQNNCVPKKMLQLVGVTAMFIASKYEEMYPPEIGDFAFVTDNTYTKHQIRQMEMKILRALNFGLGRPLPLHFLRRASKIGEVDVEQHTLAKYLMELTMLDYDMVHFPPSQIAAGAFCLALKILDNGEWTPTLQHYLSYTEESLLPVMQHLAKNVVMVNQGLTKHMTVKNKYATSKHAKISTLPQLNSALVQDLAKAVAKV

[5] = target: cdk2/cyclin E (Homo sapiens, UniProt P24941); assay: Cyclin-dependent kinase assay, cdk2/cyclin E; settings: CDK2 IC50, nM, GST-pRb substrate, 10 µM ATP

Chain of cdk4/cyclin D1 (P11802 whole entry): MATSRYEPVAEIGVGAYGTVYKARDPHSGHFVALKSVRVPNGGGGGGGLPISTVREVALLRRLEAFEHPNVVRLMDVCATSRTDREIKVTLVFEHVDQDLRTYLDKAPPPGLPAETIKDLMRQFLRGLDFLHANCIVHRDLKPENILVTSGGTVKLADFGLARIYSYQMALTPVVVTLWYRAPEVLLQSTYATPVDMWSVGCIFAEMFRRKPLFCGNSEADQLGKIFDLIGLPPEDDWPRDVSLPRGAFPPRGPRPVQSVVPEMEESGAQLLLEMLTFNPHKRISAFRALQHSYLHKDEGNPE
Chain of cdk4/cyclin D1 (P24385 whole entry partner): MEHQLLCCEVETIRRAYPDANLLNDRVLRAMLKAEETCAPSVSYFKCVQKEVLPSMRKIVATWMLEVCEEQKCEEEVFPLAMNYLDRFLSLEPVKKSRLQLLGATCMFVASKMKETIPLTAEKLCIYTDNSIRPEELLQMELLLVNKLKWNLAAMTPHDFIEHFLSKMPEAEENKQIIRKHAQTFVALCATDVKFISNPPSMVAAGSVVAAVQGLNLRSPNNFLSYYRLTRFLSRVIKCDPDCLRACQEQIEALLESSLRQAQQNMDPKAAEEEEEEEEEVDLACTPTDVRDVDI

N[C@H]1CC[C@H](Nc2nc(NC3CCN(C(=O)Nc4ccc(Cl)cc4Cl)CC3)c3ncn(C4CCCC4)c3n2)CC1 [compound 167, trans-4-[2-(4-Amino-cyclohexylamino)-9-cyclopentyl-9H-purin-6-ylamino]-piperidine-1-carboxylic acid (2,4-dichloro-phenyl)-amide dihydrochloride]
IC50 [1]: 63 nM | IC50 [2]: 0.28 µM | IC50 [3]: 0.38 µM | IC50 [4]: 4 nM | IC50 [5]: 54 nM

N[C@H]1CC[C@H](Nc2nc(NC3CCN(C(=O)NC(=O)c4ccccc4)CC3)c3ncn(C4CCCC4)c3n2)CC1 [compound 172, trans-N-(1-{4-[2-(4-Amino-cyclohexylamino)-9-cyclopentyl-9H-purin-6-ylamino]-piperidin-1-yl}-methanoyl)-benzamide dihydrochloride]
IC50 [1]: 829 nM | IC50 [2]: 1.16 µM | IC50 [3]: 1.04 µM | IC50 [4]: 23 nM | IC50 [5]: 62 nM

CCOC(=O)NC(=O)N1CCC(Nc2nc(N[C@H]3CC[C@H](N)CC3)nc3c2ncn3C2CCCC2)CC1 [compound 173, trans-(1-{4-[2-(4-Amino-cyclohexylamino)-9-cyclopentyl-9H-purin-6-ylamino]-piperidin-1-yl}-methanoyl)-carbamic acid ethyl ester dihydrochloride]
IC50 [1]: 424 nM | IC50 [2]: 2.67 µM | IC50 [3]: 2.81 µM | IC50 [4]: 18 nM | IC50 [5]: 30 nM

N[C@H]1CC[C@H](Nc2nc(NC3CCN(C(=O)Nc4ccccc4OC(F)(F)F)CC3)c3ncn(C4CCCC4)c3n2)CC1 [compound 174, trans-4-[2-(4-Amino-cyclohexylamino)-9-cyclopentyl-9H-purin-6-ylamino]-piperidine-1-carboxylic acid (2-trifluoromethoxy-phenyl)-amide dihydrochloride]
IC50 [1]: 795 nM | IC50 [2]: 0.31 µM | IC50 [3]: 0.27 µM | IC50 [4]: 48 nM | IC50 [5]: 89 nM

N[C@H]1CC[C@H](Nc2nc(NC3CCN(C(=O)Nc4cc(C(F)(F)F)cc(C(F)(F)F)c4)CC3)c3ncn(C4CCCC4)c3n2)CC1 [compound 176, trans-4-[2-(4-Amino-cyclohexylamino)-9-cyclopentyl-9H-purin-6-ylamino]-piperidine-1-carboxylic acid (3,5-bis-trifluoromethyl-phenyl)-amide dihydrochloride]
IC50 [1]: 898 nM | IC50 [2]: 0.51 µM | IC50 [3]: 0.54 µM | IC50 [4]: 7 nM | IC50 [5]: 378 nM

CCCCCNC(=O)N1CCC(Nc2nc(N[C@H]3CC[C@H](N)CC3)nc3c2ncn3C2CCCC2)CC1 [compound 184, trans-4-[2-(4-Amino-cyclohexylamino)-9-cyclopentyl-9H-purin-6-ylamino]-piperidine-1-carboxylic acid pentylamide dihydrochloride]
IC50 [1]: 377 nM | IC50 [2]: 0.71 µM | IC50 [3]: 0.71 µM | IC50 [4]: 77 nM | IC50 [5]: 85 nM

CCCCCCNC(=O)N1CCC(Nc2nc(N[C@H]3CC[C@H](N)CC3)nc3c2ncn3C2CCCC2)CC1 [compound 185, trans-4-[2-(4-Amino-cyclohexylamino)-9-cyclopentyl-9H-purin-6-ylamino]-piperidine-1-carboxylic acid hexylamide dihydrochloride]
IC50 [1]: 280 nM | IC50 [2]: 0.29 µM | IC50 [3]: 0.41 µM | IC50 [4]: 72 nM | IC50 [5]: 79 nM

CC(=O)c1ccc(NC(=O)N2CCC(Nc3nc(N[C@H]4CC[C@H](N)CC4)nc4c3ncn4C3CCCC3)CC2)cc1 [compound 188, trans-4-[2-(4-Amino-cyclohexylamino)-9-cyclopentyl-9H-purin-6-ylamino]-piperidine-1-carboxylic acid (4-acetyl-phenyl)-amide dihydrochloride]
IC50 [1]: 170 nM | IC50 [2]: 0.48 µM | IC50 [3]: 0.5 µM | IC50 [4]: 14 nM | IC50 [5]: 31 nM

CC(=O)c1cccc(NC(=O)N2CCC(Nc3nc(N[C@H]4CC[C@H](N)CC4)nc4c3ncn4C3CCCC3)CC2)c1 [compound 189, trans-4-[2-(4-Amino-cyclohexylamino)-9-cyclopentyl-9H-purin-6-ylamino]-piperidine-1-carboxylic acid (3-acetyl-phenyl)-amide dihydrochloride]
IC50 [1]: 66 nM | IC50 [2]: 1 µM | IC50 [3]: 1.37 µM | IC50 [4]: 20 nM | IC50 [5]: 28 nM

CC(C)(C)NC(=O)N1CCC(Nc2nc(N[C@H]3CC[C@H](N)CC3)nc3c2ncn3C2CCCC2)CC1 [compound 192, trans-4-[2-(4-Amino-cyclohexylamino)-9-cyclopentyl-9H-purin-6-ylamino]-piperidine-1-carboxylic acid tert-butyl-amide dihydrochloride]
IC50 [1]: 400 nM | IC50 [2]: 1.49 µM | IC50 [3]: 1.89 µM | IC50 [4]: 1000 nM | IC50 [5]: 237 nM

N#Cc1cccc(NC(=O)N2CCC(Nc3nc(N[C@H]4CC[C@H](N)CC4)nc4c3ncn4C3CCCC3)CC2)c1 [compound 194, trans-4-[2-(4-Amino-cyclohexylamino)-9-cyclopentyl-9H-purin-6-ylamino]-piperidine-1-carboxylic acid (3-cyano-phenyl)-amide dihydrochloride]
IC50 [1]: 88 nM | IC50 [2]: 0.72 µM | IC50 [3]: 0.89 µM | IC50 [4]: 40 nM | IC50 [5]: 15 nM

CCOC(=O)c1cccc(NC(=O)N2CCC(Nc3nc(N[C@H]4CC[C@H](N)CC4)nc4c3ncn4C3CCCC3)CC2)c1 [compound 195, trans-3-[(1-{4-[2-(4-Amino-cyclohexylamino)-9-cyclopentyl-9H-purin-6-ylamino]-piperidin-1-yl} -methanoyl)-amino]-benzoic acid ethyl ester dihydrochloride]
IC50 [1]: 6 nM | IC50 [2]: 0.33 µM | IC50 [3]: 0.38 µM | IC50 [4]: 50 nM | IC50 [5]: 28 nM

Cc1cccc(Cl)c1NC(=O)N1CCC(Nc2nc(N[C@H]3CC[C@H](N)CC3)nc3c2ncn3C2CCCC2)CC1 [compound 196, trans-4-[2-(4-Amino-cyclohexylamino)-9-cyclopentyl-9H-purin-6-ylamino]-piperidine-1-carboxylic acid (2-chloro-6-methyl-phenyl)-amide dihydrochloride]
IC50 [1]: 6 nM | IC50 [2]: 0.5 µM | IC50 [3]: 0.59 µM | IC50 [4]: 350 nM | IC50 [5]: 2 nM

N[C@H]1CC[C@H](Nc2nc(NC3CCN(C(=O)NCCc4ccccc4)CC3)c3ncn(C4CCCC4)c3n2)CC1 [compound 197, trans-4-[2-(4-Amino-cyclohexylamino)-9-cyclopentyl-9H-purin-6-ylamino]-piperidine-1-carboxylic acid phenethyl-amide dihydrochloride]
IC50 [1]: 381 nM | IC50 [2]: 0.91 µM | IC50 [3]: 1.09 µM | IC50 [4]: 200 nM | IC50 [5]: 8 nM

COc1cc(NC(=O)N2CCC(Nc3nc(N[C@H]4CC[C@H](N)CC4)nc4c3ncn4C3CCCC3)CC2)cc(OC)c1OC [compound 198, trans-4-[2-(4-Amino-cyclohexylamino)-9-cyclopentyl-9H-purin-6-ylamino]-piperidine-1-carboxylic acid (3,4,5-trimethoxy-phenyl)-amide dihydrochloride]
IC50 [1]: 7 nM | IC50 [2]: 2.85 µM | IC50 [3]: 31.8 µM | IC50 [4]: 40 nM | IC50 [5]: 20 nM

N[C@H]1CC[C@H](Nc2nc(NC3CCN(C(=O)Nc4c(F)cccc4C(F)(F)F)CC3)c3ncn(C4CCCC4)c3n2)CC1 [compound 201, trans-4-[2-(4-Amino-cyclohexylamino)-9-cyclopentyl-9H-purin-6-ylamino]-piperidine-1-carboxylic acid (2-fluoro-6-trifluoromethyl-phenyl)-amide dihydrochloride]
IC50 [1]: 986 nM | IC50 [2]: 1.53 µM | IC50 [3]: 1.9 µM | IC50 [4]: 170 nM | IC50 [5]: 41 nM

CCCCNC(=O)N1CCC(Nc2nc(N[C@H]3CC[C@H](N)CC3)nc3c2ncn3C2CCCC2)CC1 [compound 204, trans-4-[2-(4-Amino-cyclohexylamino)-9-cyclopentyl-9H-purin-6-ylamino]-piperidine-1-carboxylic acid butylamide dihydrochloride]
IC50 [1]: 39 nM | IC50 [2]: 2.53 µM | IC50 [3]: 2.64 µM | IC50 [4]: 200 nM | IC50 [5]: 51 nM

N[C@H]1CC[C@H](Nc2nc(NC3CCN(C(=O)NC4CCCCC4)CC3)c3ncn(C4CCCC4)c3n2)CC1 [compound 205, trans-4-[2-(4-Amino-cyclohexylamino)-9-cyclopentyl-9H-purin-6-ylamino]-piperidine-1-carboxylic acid cyclohexylamide dihydrochloride]
IC50 [1]: 3250 nM | IC50 [2]: 1.84 µM | IC50 [3]: 1.63 µM | IC50 [4]: 290 nM | IC50 [5]: 232 nM

CCCNC(=O)N1CCC(Nc2nc(N[C@H]3CC[C@H](N)CC3)nc3c2ncn3C2CCCC2)CC1 [compound 206, trans-4-[2-(4-Amino-cyclohexylamino)-9-cyclopentyl-9H-purin-6-ylamino]-piperidine-1-carboxylic acid propylamide dihydrochloride]
IC50 [1]: 85 nM | IC50 [2]: 2.68 µM | IC50 [3]: 2.89 µM | IC50 [4]: 210 nM | IC50 [5]: 7 nM

Cc1ccccc1NC(=O)N1CCC(Nc2nc(N[C@H]3CC[C@H](N)CC3)nc3c2ncn3C2CCCC2)CC1 [compound 208, trans-4-[2-(4-Amino-cyclohexylamino)-9-cyclopentyl-9H-purin-6-ylamino]-piperidine-1-carboxylic acid (2-methyl-phenyl)-amide dihydrochloride]
IC50 [1]: 73 nM | IC50 [2]: 0.47 µM | IC50 [3]: 0.68 µM | IC50 [4]: 180 nM | IC50 [5]: 8 nM
